Reference: ChEMBL document CHEMBL4138123, “Design, synthesis and biological evaluation of novel pyrazolochalcones as potential modulators of PI3K/Akt/mTOR pathway and inducers of apoptosis in breast cancer cells” (Eur J Med Chem, 2017)
pIC50: −log10 of the molar value.

Experiments:
COLO 205 = assay: Cytotoxicity against human COLO205 cells assessed as cell growth at 0.01 uM after 48 hrs by sulforhodamine B assay relative to control; format: functional; conditions: COLO 205, 48 h, read-out: Activity
SW-620 [1] = assay: Cytotoxicity against human SW620 cells assessed as cell growth at 10 uM after 48 hrs by sulforhodamine B assay relative to control; format: functional; conditions: SW-620, 48 h, read-out: Activity
SF-268 [2] = assay: Cytotoxicity against human SF268 cells assessed as cell growth at 1 uM after 48 hrs by sulforhodamine B assay relative to control; format: functional; conditions: SF-268, 48 h, read-out: Activity
NCI-H23 = assay: Cytotoxicity against human NCI-H23 cells assessed as cell growth at 10 uM after 48 hrs by sulforhodamine B assay relative to control; format: functional; conditions: NCI-H23, 48 h, read-out: Activity
A498 = assay: Cytotoxicity against human A498 cells assessed as cell growth at 1 uM after 48 hrs by sulforhodamine B assay relative to control; format: functional; conditions: A498, 48 h, read-out: Activity
SW-620 [3] = assay: Cytotoxicity against human SW620 cells assessed as cell growth at 0.1 uM after 48 hrs by sulforhodamine B assay relative to control; format: functional; conditions: SW-620, 48 h, read-out: Activity
A549 = assay: Cytotoxicity against human A549/ATCC cells assessed as cell growth at 100 uM after 48 hrs by sulforhodamine B assay relative to control; format: functional; conditions: A549, 48 h, read-out: Activity
SK-MEL-28 = assay: Cytotoxicity against human SK-MEL-28 cells assessed as cell growth at 1 uM after 48 hrs by sulforhodamine B assay relative to control; format: functional; conditions: SK-MEL-28, 48 h, read-out: Activity
IGROV-1 = assay: Cytotoxicity against human IGROV1 cells assessed as cell growth at 0.1 uM after 48 hrs by sulforhodamine B assay relative to control; format: functional; conditions: IGROV-1, 48 h, read-out: Activity
SF-268 [4] = assay: Cytotoxicity against human SF268 cells assessed as cell growth at 10 uM after 48 hrs by sulforhodamine B assay relative to control; format: functional; conditions: SF-268, 48 h, read-out: Activity
NCI/ADR-RES [5] = assay: Cytotoxicity against human NCI/ADR-RES cells assessed as cell growth at 100 uM after 48 hrs by sulforhodamine B assay relative to control; format: functional; conditions: read-out: Activity
Malme-3M = assay: Cytotoxicity against human MALME-3M cells assessed as cell growth at 10 uM after 48 hrs by sulforhodamine B assay relative to control; format: functional; conditions: read-out: Activity
SNB-19 = assay: Cytotoxicity against human SNB19 cells assessed as cell growth at 1 uM after 48 hrs by sulforhodamine B assay relative to control; format: functional; conditions: SNB-19, 48 h, read-out: Activity
MCF7 [6] = assay: Cytotoxicity against human MCF7 cells assessed as cell growth at 10 uM after 48 hrs by sulforhodamine B assay relative to control; format: functional; conditions: MCF7, 48 h, read-out: Activity
BT-549 = assay: Cytotoxicity against human BT549 cells assessed as cell growth at 0.01 uM after 48 hrs by sulforhodamine B assay relative to control; format: functional; conditions: BT-549, 48 h, read-out: Activity
CCRF-CEM = assay: Cytotoxicity against human CCRF-CEM cells assessed as cell growth at 1 uM after 48 hrs by sulforhodamine B assay relative to control; format: functional; conditions: read-out: Activity
SK-MEL-2 = assay: Cytotoxicity against human SK-MEL-2 cells assessed as growth inhibition after 48 hrs by sulforhodamine B assay; format: functional; conditions: SK-MEL-2, 48 h
HL-60(TB) = assay: Cytotoxicity against human HL-60(TB) cells assessed as cell growth at 10 uM after 48 hrs by sulforhodamine B assay relative to control; format: functional; conditions: HL-60, 48 h, read-out: Activity
OVCAR-4 = assay: Cytotoxicity against human OVCAR4 cells assessed as cell growth at 0.01 uM after 48 hrs by sulforhodamine B assay relative to control; format: functional; conditions: OVCAR-4, 48 h, read-out: Activity
NCI/ADR-RES [7] = assay: Cytotoxicity against human NCI/ADR-RES cells assessed as cell growth at 10 uM after 48 hrs by sulforhodamine B assay relative to control; format: functional; conditions: read-out: Activity
MOLT-4 [8] = assay: Cytotoxicity against human MOLT4 cells assessed as cell growth at 1 uM after 48 hrs by sulforhodamine B assay relative to control; format: functional; conditions: MOLT-4, 48 h, read-out: Activity
OVCAR-5 = assay: Cytotoxicity against human OVCAR5 cells assessed as cell growth at 0.01 uM after 48 hrs by sulforhodamine B assay relative to control; format: functional; conditions: OVCAR-5, 48 h, read-out: Activity
KM12 = assay: Cytotoxicity against human KM12 cells assessed as cell growth at 0.01 uM after 48 hrs by sulforhodamine B assay relative to control; format: functional; conditions: KM12, 48 h, read-out: Activity
NCI-H322M = assay: Cytotoxicity against human NCI-H322M cells assessed as growth inhibition after 48 hrs by sulforhodamine B assay; format: functional
MDA-MB-231 = assay: Cytotoxicity against human MDA-MB-231 cells assessed as cell growth at 0.01 uM after 48 hrs by sulforhodamine B assay relative to control; format: functional; conditions: MDA-MB-231, 48 h, read-out: Activity
UACC-257 = assay: Cytotoxicity against human UACC257 cells assessed as growth inhibition after 48 hrs by sulforhodamine B assay; format: functional; conditions: UACC-257, 48 h
SW-620 [9] = assay: Cytotoxicity against human SW620 cells assessed as growth inhibition after 48 hrs by sulforhodamine B assay; format: functional; conditions: SW-620, 48 h
SR = assay: Cytotoxicity against human SR cells assessed as cell growth at 10 uM after 48 hrs by sulforhodamine B assay relative to control; format: functional; conditions: read-out: Activity
MCF7 [10] = assay: Cytotoxicity against human MCF7 cells assessed as growth inhibition after 48 hrs by MTT assay; format: functional, cell-based; conditions: MCF7, 48 h
HCC 2998 = assay: Cytotoxicity against human HCC2998 cells assessed as growth inhibition after 48 hrs by sulforhodamine B assay; format: functional; conditions: HCC 2998, 48 h
HOP-62 = assay: Cytotoxicity against human HOP62 cells assessed as cell growth at 0.01 uM after 48 hrs by sulforhodamine B assay relative to control; format: functional; conditions: HOP-62, 48 h, read-out: Activity
MOLT-4 [11] = assay: Cytotoxicity against human MOLT4 cells assessed as cell growth at 0.01 uM after 48 hrs by sulforhodamine B assay relative to control; format: functional; conditions: MOLT-4, 48 h, read-out: Activity
T47D = assay: Cytotoxicity against human T47D cells assessed as cell growth at 10 uM after 48 hrs by sulforhodamine B assay relative to control; format: functional; conditions: read-out: Activity
NCI-H460 = assay: Cytotoxicity against human NCI-H460 cells assessed as cell growth at 100 uM after 48 hrs by sulforhodamine B assay relative to control; format: functional; conditions: NCI-H460, 48 h, read-out: Activity
SK-OV-3 = assay: Cytotoxicity against human SKOV3 cells assessed as growth inhibition after 48 hrs by sulforhodamine B assay; format: functional; conditions: SK-OV-3, 48 h
SF-268 [12] = assay: Cytotoxicity against human SF268 cells assessed as cell growth at 0.01 uM after 48 hrs by sulforhodamine B assay relative to control; format: functional; conditions: SF-268, 48 h, read-out: Activity

## COc1ccc(-c2cc(/C=C/C(=O)c3cc(OC)c(OC)c(OC)c3)[nH]n2)cc1OC
COLO 205
  growth at 0.01 µM: 99%
SW-620 [1]
  growth at 10 µM: -43%
SF-268 [2]
  growth at 1 µM: 81%
NCI-H23
  growth at 10 µM: -39%
A498
  growth at 1 µM: 65%
SW-620 [3]
  growth at 0.1 µM: 96%
A549
  growth at 100 µM: -62%
SK-MEL-28
  growth at 1 µM: 89%
IGROV-1
  growth at 0.1 µM: 97%
SF-268 [4]
  growth at 10 µM: -56%
NCI/ADR-RES [5]
  growth at 100 µM: -7%
Malme-3M
  growth at 10 µM: -25%
SNB-19
  growth at 1 µM: 77%
MCF7 [6]
  growth at 10 µM: -81%
BT-549
  growth at 0.01 µM: 96%
CCRF-CEM
  growth at 1 µM: 14%
SK-MEL-2
  GI50: 2.69 µM
  LC50 (concentration killing 50% of cells): 29.5 µM
  TGI: 7.7 µM
HL-60(TB)
  growth at 10 µM: 2%
OVCAR-4
  growth at 0.01 µM: 94%
NCI/ADR-RES [7]
  growth at 10 µM: 9%
MOLT-4 [8]
  growth at 1 µM: 69%
OVCAR-5
  growth at 0.01 µM: 102%
KM12
  growth at 0.01 µM: 99%
NCI-H322M
  GI50: 2.02 µM
  TGI: 6.03 µM
NCI-H322M; read-out: LC50 (the source's name)
  CC50: 25 µM
MDA-MB-231
  growth at 0.01 µM: 98%
UACC-257
  GI50: 1.79 µM
  LC50: 8.05 µM
  TGI: 3.8 µM
SW-620 [9]
  GI50: 1.5 µM
  LC50 (lethal concentration, 50% net cell kill): > 100 µM
  TGI: 4.16 µM
SR
  growth at 10 µM: -10%
MCF7 [10]
  pIC50: 5.96
HCC 2998
  GI50: 1.9 µM
  LC50: 6.09 µM
  TGI: 3.4 µM
HOP-62
  growth at 0.01 µM: 92%
MOLT-4 [11]
  growth at 0.01 µM: 99%
T47D
  growth at 10 µM: -37%
NCI-H460
  growth at 100 µM: -60%
SK-OV-3
  GI50: 5.47 µM
  LC50: 45.5 µM
  TGI: 19 µM
SF-268 [12]
  growth at 0.01 µM: 99%
